These results are taken from patent US8436035B2, “Organic compounds” (Novartis AG, priority 2006, dated 2013).

By IC50 is commonly meant the concentration at which inhibition is half-maximal.

The target in assay [1] is T1, CYP11B1 (Homo sapiens, UniProt P15538).
T1 construct: Thus, the NCI-H295R cells have Cyp11 B1 (steroid 11 p-hydroxylase); host or cells: NCI-H295R
T1 sequence (P15538 25-503): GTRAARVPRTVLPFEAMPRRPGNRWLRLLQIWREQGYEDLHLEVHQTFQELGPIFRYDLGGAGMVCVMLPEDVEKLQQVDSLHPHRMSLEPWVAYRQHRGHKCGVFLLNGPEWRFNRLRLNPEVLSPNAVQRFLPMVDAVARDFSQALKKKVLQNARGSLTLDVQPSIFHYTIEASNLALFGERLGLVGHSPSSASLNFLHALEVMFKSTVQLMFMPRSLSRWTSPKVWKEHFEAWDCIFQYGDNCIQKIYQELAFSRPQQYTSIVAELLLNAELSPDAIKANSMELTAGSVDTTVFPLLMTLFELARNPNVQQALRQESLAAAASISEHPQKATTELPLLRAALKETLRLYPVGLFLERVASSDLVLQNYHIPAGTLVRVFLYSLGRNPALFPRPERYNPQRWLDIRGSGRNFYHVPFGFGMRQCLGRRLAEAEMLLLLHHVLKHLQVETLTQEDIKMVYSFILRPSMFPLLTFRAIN
The experiment in a line: in vitro CYP11B1 inhibition, steroid release from NCI-H295R cells. It counts as cell-based. Particulars: for inhibition at 0.1 µM: NCI-H295R, read-out: 11B1 % I @ 100 nM. An excerpt:
The in vitro inhibitory activities for CYP11B1 can be determined by the following assay.
The cell line NCI-H295R was originally isolated from an adrenocortical carcinoma and has been characterized in the literature through the stimulable secretion of steroid hormones and the presence of the enzymes essential for steroidogenesis. Thus, the NCI-H295R cells have Cyp11 B1 (steroid 11 p-hydroxylase). The cells show the physiological property of zonally undifferentiated human foetal adrenocortical cells which, however, have the capacity to produce the steroid hormones which are formed in the three, phenotypically distinguishable zones in the adult adrenal cortex.
The NCI-H295R cells (American Type Culture Collection, ATCC, Rockville, Md., USA) are grown in Dulbeoco's Modified Eagle'Ham F-12 Medium (DME/F12), which has been I supplemented with Ulroser SF Serum (Soprachem, Cergy-Saint-Christophe, France), insulin, transferrin, selenite (I-T-S, Becton Dickinson Biosciences, Franklin lakes, NJ, USA) and antibiotics in 75 cm^2 cell culture vessels at 37° C. and in a 95% air-5% carbon dioxide atmosphere. The cells are subsequently transferred for colony formation into a 24-well incubation vessel. They are cultivated there in DME/F12 medium, which is now supplemented with 0.1% bovine serum instead of Ultroser SF for 24 hours. The experiment is initiated by cultivating the cells in DME/F12 medium which is supplemented with 0.1% bovine serum albumin and test compound, in the presence or absence of cell stimulants, for 72 hours. The test substance is added in a concentration range from 0.2 nanomolar to […]. Cell stimulants which can be used are angiotensin 11 ([…] or 100 nanomolar), potassium ions (16 millimolar), forskolin (10 micromolar) or a combination of two stimulants.
The excretion of aldosterone, cortisol, corticosterone and estradiol/estrone into the culture medium can be detected and quantified by commercially available, specific monoclonal antibodies in radioimmunoassays in accordance with the manufacturer's instructions.
Inhibition of the release of certain steroids can be used as a measure of the respective enzyme inhibition by the added test compounds. The dose-dependent inhibition of enzymic activity by a compound is calculated by means of an inhibition plot which is characterized by an IC50.
The IC50 values for active test compounds are ascertained by a […] in order to construct inhibition plots without data weighting. The inhibition plot is calculated by fting a 4-parameter logistic function to the raw data points using the least squares method. The equation of the 4-parameter logistic function is calculated as follows: Y=(d−a)/((1+(x/c)b))+a I where: a=minimum data level b=gradient I c=ICED, d=maximum data level x=inhibitor concentration.

The target in assay [2] is T2, aldosterone synthase (CYP11B2) (Homo sapiens, UniProt P19099).
T2 construct: host or cells: NCI-H295R
T2 sequence (P19099 25-503): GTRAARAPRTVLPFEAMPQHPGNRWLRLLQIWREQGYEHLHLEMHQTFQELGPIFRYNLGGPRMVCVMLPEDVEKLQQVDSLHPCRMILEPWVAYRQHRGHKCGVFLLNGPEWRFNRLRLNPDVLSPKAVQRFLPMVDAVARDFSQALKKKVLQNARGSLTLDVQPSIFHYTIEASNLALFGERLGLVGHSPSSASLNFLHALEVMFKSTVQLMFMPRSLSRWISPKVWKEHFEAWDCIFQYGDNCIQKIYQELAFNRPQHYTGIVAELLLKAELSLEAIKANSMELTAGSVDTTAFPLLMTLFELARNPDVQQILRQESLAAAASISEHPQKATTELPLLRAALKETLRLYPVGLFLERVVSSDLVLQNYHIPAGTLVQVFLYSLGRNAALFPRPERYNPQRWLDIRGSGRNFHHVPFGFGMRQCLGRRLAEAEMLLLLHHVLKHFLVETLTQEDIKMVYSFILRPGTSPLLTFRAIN
Kind of assay: in vitro aldosterone synthase inhibition, aldosterone production in Ang II-stimulated NCI-H295R cells. It counts as cell-based. To be noted: read-out: AS IC50. The text has this:
In particular, the aldosterone synthase inhibitory activities in vitro can be determined by the following assay.
Human adrenocortical carcinoma NCI-H295R cell line is obtained from American Type Culture Collection (Manassas, Va.). Insulin/transferrin/selenium (ITS)-A supplement (100×), DMEM/F-12, antibiotic/antimycotic (100×), and fetal calf serum (FCS) are purchased from Gibco (Grand Island, N.Y.). Anti-mouse PVT scintillation proximity assay (SPA) beads and NBS 96-well plates are obtained from Amersham (Piscataway, N.J.) and Corning (Acton, Mass.), respectively. Solid black 96-well flat bottom plates were purchased from Costar (Corning, N.Y.). Aldosterone and angiotensin (Ang II) are purchased from Sigma (St. Louis, Mo.). D-[1,2,6,7-^3H(N)]aldosterone was acquired from PerkinElmer (Boston, Mass.). Nu-serum was a product of BD Biosciences (Franklin Lakes, N.J.).
For in vitro measurement of aldosterone activity, human adrenocortical carcinoma NCI-H295R cells are seeded in NBS 96-well plates at a density of 25,000 cells/well in 100 μl of a growth medium containing DMEM/F12 supplemented with 10% FCS, 2.5% Nu-serum, 1 μg ITS/ml, and 1× antibiotic/antimycotic. The medium is changed after culturing for 3 days at 37° C. under an atmosphere of 5% CO2/95% air. On the following day, cells are rinsed with 100 μl of DMEM/F12 and incubated with 100 μl of treatment medium containing 1 μM Ang II and a compound at different concentrations in quadruplicate wells at 37° C. for 24 hr. At the end of incubation, 50 μl of medium is withdrawn from each well for measurement of aldosterone production by an RIA using mouse anti-aldosterone monoclonal antibodies.
Measurement of aldosterone activity can also be performed using a 96-well plate format. Each test sample is incubated with 0.02 μCi of D-[1,2,6,7-^3H(N)]aldosterone and 0.3 μg of anti-aldosterone antibody in phosphate-buffered saline (PBS) containing 0.1% Triton X-100, 0.1% bovine serum albumin, and 12% glycerol in a total volume of 200 μl at room temperature for 1 hr. Anti-mouse PVT SPA beads (50 μl) are then added to each well and incubated overnight at room temperature prior to counting in a Microbeta plate counter. The amount of aldosterone in each sample is calculated by comparing with a standard curve generated using known quantities of the hormone.

On to `CC1(C)C(n2cncc2CO)c2ccccc2S1(=O)=O` (centres unmarked) [Compound 24, [3-(2,2-Dimethyl-1,1-dioxo-2,3-dihydro-1H-1lambda*6*-benzo[b]thiophen-3-yl)-3H-imidazol-4-yl]-methanol], for which, in assay [1], the inhibition at 0.1 µM was 93%. In addition, in assay [2], the IC50 came out at 0.194 µM.
For `CCc1cncn1C1CCC(C)(C)c2ccccc21` (single isomer, unassigned) [Compound 9, 1-(4,4-Dimethyl-1,2,3,4-tetrahydro-naphthalen-1-yl)-5-ethyl-1H-imidazole], in assay [1], the “11B1 % I @ 100 nM” value was 100%. The IC50 in assay [2] was determined as 0.006 µM.
For “spiro[cyclopentane-1,2′-[3′-(7′-methyl-chroman-4′-yl)-3′H-imidazole-4′-carboxylic acid methyl ester]] [Compound 17]”, the “11B1 % I @ 100 nM” value in assay [1] is recorded as 100%. The IC50 in assay [2] worked out at 0.175 µM.
The corresponding values for `COC(=O)c1cncn1[C@H]1c2ccccc2[C@@H](O)CC1(C)C` (relative stereo) [Compound 11, 3-(cis-4-Hydroxy-2,2-dimethyl-1,2,3,4-tetrahydro-naphthalen-r-1-yl)-3H-imidazole-4-carboxylic acid methyl ester] are 100% and 0.059 µM.
For the compound `CCc1cncn1C1CC(C)(C)c2ccccc21` (centres unmarked) [Compound 22, 1-(3,3-Dimethyl-indan-1-yl)-5-ethyl-1H-imidazole], in assay [1], the inhibition at 0.1 µM is 100%. For the same compound, in assay [2], the IC50 was determined as 0.194 µM.
The corresponding values for `CC(C)OC(=O)c1cncn1C1CCCCc2ccccc21` (centres unmarked) [Compound 26, 3-(6,7,8,9-Tetrahydro-5H-benzocyclohepten-5-yl)-3H-imidazole-4-carboxylic acid isopropyl ester] are 99% and 0.005 µM.
The matching figures for `CCc1cncn1C1CCC(C)(C)c2ccccc21` (single isomer, unassigned) [Compound 8, 1-(4,4-Dimethyl-1,2,3,4-tetrahydro-naphthalen-1-yl)-5-ethyl-1H-imidazole]: 100% and 0.035 µM.
